# From patent US8492426B1, “Use of carvedilol for treatment of diabetes mellitus” (priority 2012, dated 2013)
# Key:
# [1] = tested on: Type II diabetes mellitus patients; experiment: Group 2: Type II diabetes mellitus patients uncontrolled on diet and oral medication, Carvedilol used in place of insulin; assay type: in vivo, human
# Protocol: Data has been collected utilizing the various methods described herein and included for purposes of showing results and further exemplifying the preferred embodiments of this invention. A study was performed on two groups: Group 1 and Group 2. Both groups included patients with diabetes mellitus and a history of uncontrolled blood sugar. The patients of each group were between the ages of 40 and 85 and consisted of both males and females and various ethnicities. Group 1 consisted of patients that were already on insulin (humulin mix, novolog mix, etc.) and who were unable to control their blood sugar. The patients in Group 2 were taking oral medications, were unable to control their blood sugar, and needed insulin to regulate their disease.
# Normal blood sugar levels were considered to be 120 mg % (mg % is milligram per 100 cc blood), which was equivalent to 6.0 HbA1c before meals or while fasting. After the first visit and examination, the patients' blood sugar and HbA1c levels were reviewed. […] Then patients were requested to report their blood sugar weekly. […] HbA1c levels were checked approximately 2-3 months after controlling the blood sugar.
# Group 2 consisted of Type II diabetes mellitus patients who could not control their blood sugar on diet nor oral medication and would need to start insulin. Carvedilol was used in place of insulin to control blood sugar as well as other anti-diabetic oral medications. • 1. […] Sitagliptin was then discontinued and the hypoglycemia subsequently disappeared. […] The last recorded HbA1c was 6.8 • 2. patient three had poorly controlled blood sugar but managed an HbA1c of 8.0 and mean fasting glucose of 183 mg %. They were taking three oral medications: Metformin 1000 mg BID, Sitagliptin 100 mg daily and Sulfonylurea. They were started on Carvedilol and their blood sugar came down to 90 mg %. […] Their HbA1c level is 6.5 • 3. […] They were prescribed Metformin and Glyburide Micro. They were also given Bayetta, however their blood sugar remained uncontrolled. […] Their HbA1c level is 8.4 • 4. […] The patient also suffered from severe Peripheral Neuritis. Their HbA1c was 10.2 in December 2011. The patient was taking Metformin 1000 mg twice a day, Sitagliptin 100 mg daily and Glyburide Micro 6 mg twice a day. The patient was started on Carvedilol in February 2012. Their HbA1c in late March 2012 was down to 8.2 with a mean plasma glucose of 189 mg %. […] Their HbA1c is now 7.8. • 5. […] They have been on Janumet […] twice a day, Glymeperide which was changed to Glyburide Micro 3 mg twice daily. […] Carvedilol was added to their regimen and their blood sugar was recently reported at 81 mg %. […] Their HbA1c level is 7.1
# [2] = tested on: patients with diabetes mellitus already on insulin; experiment: Group 1: diabetes mellitus patients already on insulin with uncontrolled blood sugar, prescribed Carvedilol with diet; assay type: in vivo, human
# Protocol: Data has been collected utilizing the various methods described herein and included for purposes of showing results and further exemplifying the preferred embodiments of this invention. A study was performed on two groups: Group 1 and Group 2. Both groups included patients with diabetes mellitus and a history of uncontrolled blood sugar. The patients of each group were between the ages of 40 and 85 and consisted of both males and females and various ethnicities. Group 1 consisted of patients that were already on insulin (humulin mix, novolog mix, etc.) and who were unable to control their blood sugar. The patients in Group 2 were taking oral medications, were unable to control their blood sugar, and needed insulin to regulate their disease. Normal blood sugar levels were considered to be 120 mg % (mg % is milligram per 100 cc blood), which was equivalent to 6.0 HbA1c before meals or while fasting. After the first visit and examination, the patients' blood sugar and HbA1c levels were reviewed. […] Then patients were requested to report their blood sugar weekly. […] HbA1c levels were checked approximately 2-3 months after controlling the blood sugar. Group 1 data is presented below for patients with Type II diabetes mellitus who were already taking insulin and were unable to control their blood sugar. The data includes blood sugar and HbA1c levels before and after taking Carvedilol. • 1. JBM-65-M was first seen in January 2012. Their HbA1c was more than 9.0 and fasting plasma glucose was 282 mg %. They were taking 35 units at night of Lente insulin and regular insulin before each meal at a dosage of 10-30 units, on a sliding scale. They began taking an effective dosage of Carvedilol with a diet in February 2012. […] BS-81-F was taking 36 units of Humulin N twice a day in February 2012. Their HbA1c was 7.6 and mean plasma glucose was 171 mg %. They began taking an effective dosage of Carvedilol immediately. In April 2012 their HbA1c was 6.5 and their mean plasma glucose was 140 mg %. […] patient four is a Type I diabetic with two episodes of myocardial infarction and four stents post Percutaneous Transluminal Coronary Angioplasty (PTCA). In January 2012 […] HbA1c was 8.2 with a mean […] glucose of 203 mg %. They were taking 400 units of Novolog mix 70/30 in two divided doses. After Carvedilol and an improved diet, the dose of insulin has been reduced to a total of 90 units a day in two divided doses. Their HbA1c is the same but recent blood sugar was 134 mg %. • 4. […] They were taking Novolog 70/30 40 units twice a day. They were started on Carvedilol with an improved diet. […] Currently they are reporting a plasma blood glucose below 120 mg %. • 5. […] They were taking Novlog mix 70/30 20 units twice a day. […] Group 2
smiles,measurement,setting,value
"COc1ccccc1OCCNCC(O)COc1cccc2[nH]c3ccccc3c12 (racemic) [Carvedilol, (±)-1-(Carbazol-4-yloxy-3-[[2-(o-methoxyphenoxy-)ethyl]amino]-2-propanol]",other anti-diabetic medication after Carvedilol,[1]; patient -76,able to stop Glyburide Micro
same,blood sugar,"[1]; patient -76, Carvedilol added to regimen, before: 273 mg % after cortisone shot, mean plasma glucose 163 mg %",81 mg %
same,HbA1c,"[1]; patient -76, on Carvedilol, before: 8.3",7.1
same,HbA1c,"[1]; patient eight, started Carvedilol recently, before: 8.5",8.4
same,blood sugar,"[1]; patient eight, started Carvedilol recently, before: fasting plasma glucose 197 mg %, uncontrolled on Metformin, Glyburide Micro, Bayetta",reached normal levels
same,adverse effect,"[1]; patient one, Carvedilol taken together with Sitagliptin, disappeared after Sitagliptin was discontinued",hypoglycemia
same,last recorded HbA1c,"[1]; patient one, Carvedilol, Sitagliptin discontinued",6.8
same,blood sugar control,"[1]; patient one, Carvedilol, Sitagliptin discontinued, before: blood sugar 200 mg %",controlled the patient's blood sugar
same,other anti-diabetic medication after Carvedilol,[1]; patient six,stopped taking Glyburide Micro
same,mean plasma glucose,"[1]; patient six, late March 2012, Carvedilol since February 2012",189 mg %
same,HbA1c,"[1]; patient six, late March 2012, Carvedilol since February 2012, before (December 2011): 10.2",8.2
same,blood sugar,"[1]; patient six, more recently reported",95 mg %
same,HbA1c,"[1]; patient six, now, after stopping Glyburide Micro",7.8
same,other anti-diabetic medication after Carvedilol,[1]; patient three,discontinued use of Sitagliptin
same,blood sugar,"[1]; patient three, Carvedilol added to Metformin, Sitagliptin, Sulfonylurea, before: mean fasting glucose 183 mg %",90 mg %
same,HbA1c,"[1]; patient three, on Carvedilol, Sitagliptin discontinued, before: 8.0",6.5
same,fasting plasma glucose,"[2]; patient five, April 2012, Carvedilol with diet since February 2012, before: 282 mg %",122 mg %
same,HbA1c,"[2]; patient five, April 2012, Carvedilol with diet since February 2012, before: more than 9.0",5.5
same,insulin use after Carvedilol,"[2]; patient five, by April 2012, before: 35 units Lente at night plus 10-30 units regular insulin before each meal",taken off insulin completely
same,dose of insulin after Carvedilol,"[2]; patient four, Type I diabetic, Carvedilol and improved diet, two divided doses, before: 400 units Novolog mix 70/30",90 units a day
same,HbA1c,"[2]; patient four, Type I diabetic, after Carvedilol and improved diet, before: 8.2",the same
same,recent blood sugar,"[2]; patient four, Type I diabetic, after Carvedilol and improved diet, before: mean plasma glucose 203 mg %",134 mg %
same,mean plasma glucose,"[2]; patient nine, April 2012, Carvedilol since February 2012, before: 171 mg %",140 mg %
same,HbA1c,"[2]; patient nine, April 2012, Carvedilol since February 2012, before: 7.6",6.5
same,insulin use after Carvedilol,"[2]; patient nine, by April 2012, before: 36 units Humulin N twice a day",taken off of insulin completely
same,plasma glucose,"[2]; patient seven, renal failure, after five weeks on Carvedilol, off insulin, before: 249 mg %",below 120 mg %
same,HbA1c corresponding to plasma glucose,"[2]; patient seven, after five weeks on Carvedilol, before: 10.3",6.0
same,insulin use after Carvedilol,"[2]; patient seven, after five weeks on Carvedilol, before: Novlog mix 70/30 20 units twice a day",taken off insulin
same,HbA1c,"[2]; patient two, April 2012, Carvedilol with improved diet, off insulin, before (December 2011): 11.4",8.6
same,plasma blood glucose,"[2]; patient two, April 2012, before: 280 mg %",200 mg %
same,insulin use after Carvedilol,"[2]; patient two, before: Novolog 70/30 40 units twice a day",came off of insulin
same,plasma blood glucose,"[2]; patient two, currently reported",below 120 mg %
